The values below come from patent publication US20110177161A1, “PHARMACEUTICAL COMPOSITIONS OF [5(S)-(2'-HYDROXYETHOXY)-20(S)-CAMPTOTHECIN” (DR. REDDY'S LABORATORIES LIMITED, priority 2007, published 2011).

In data set [1] the test system is Human bone marrow mononuclear cells. Description: Human bone marrow assay (CFU-GM colonies). Format: cell-based. The settings on record: GI90 for human cell toxicity to GI50 for anticancer activity. As to the method:
Methocult.TM. GF (Cat No: H4534, Poietics, Biowhittakar, USA) medium comprising Methycellulose in iscove's MDM, Fetal bovine serum, Bovine serum albumin, 2-Mercaptoethanol, L-Glutamine, rhStem cell factor, rhGM-CSF and rhIL-3 was used for the assay. Human bone marrow mononuclear cells (Cat No. 2M-125C, Poietics, Biowhittakar, USA) were mixed with Methocult GF and the cell density was adjusted to 3×10^5 cells/ml. From this preparation, 500 μL aliquots were made and […] of 20× drug solution or vehicle was added to each aliquot and mixed thoroughly. 100 μL of clonogenic medium was plated into each well and the plates were allowed to gel at 4° C. for 15 minutes. Plates were incubated at 37 degree C. in a fully humidified atmosphere of 5% CO2 in an incubator for 14 days. CFU-GM colonies were counted under an inverted microscope as aggregates of 50 cells or more. The percentage colony inhibition was calculated using the following formula: 100−[(number of colonies in drug treated wells/Number of colonies in control wells)×100].

Data set [2] in a line: Physicochemical characteristics of drug substance, powder composition, blend and lyophilized product. The text has this: Another indication of the physicochemical characteristics of the powder composition is the density properties such as bulk and tapped density. Bulk density is described as untapped or tapped. Untapped bulk density of a substance is the undisturbed packing density of that substance and tapped bulk density relates to the packing density after tapping a bed of substance until no change in the packing density is seen. Bulk density and tapped density can be determined using compendial bulk density apparatus, the method being given in United States Pharmacopeia 29, United States Pharmacopeial Convention, Inc., Rockville, Md., 2005, at pages 2638-2639. A higher bulk density indicates a dense material allowing a higher dose to be filled into a given size capsule for example. The powder compositions can have bulk densities from about 0.8 g/ml to about 0.2 g/ml, or from about 0.6 g/ml to about 0.2 g/ml.
The Hausner ratio is a measure of inter-particle friction and the potential powder arch or bridge strength and stability (Hausner, H. H. Friction conditions in a mass of metal powders. International Journal of Powder Metallurgy 1967, 3 (4), pages 7-13). It has been widely used to estimate the flow properties of powders, blends, granules and other such particles or aggregates and is expressed as the ratio of tapped bulk density to the untapped bulk density of the substance. Hausner ratio used herein is defined as ratio of tapped to untapped bulk densities. A Hausner ratio of <1.2 indicates good flow while ratio >1.5 indicate poor flow. The powder compositions can have a Hausner ratio less than 1.5 or less than 1.2.
Carr index as used herein is defined as the percent compressibility which is a percentage ratio of the difference between tapped bulk density and initial bulk density to tapped bulk density. Carr index values between 5-15% represent materials with excellent flowability, values between 18-21% represent fair-flowability and values above 40% represent very poor flowability. The powder compositions of the invention can have Carr index values less than 40% or less than 21% or less than 15%.
Table 1 describes the physicochemical characteristics of DRF-(5S,20S)-1042, which is used in the examples below.
The powder composition and formulation blend along with their placebo have been characterized for their physical parameters and the data has been tabulated in table 11.
After completion of lyophilization cycle the vials were sealed using 20 mm aluminum flip-off seals. The resulting lyophilized product was tested for various parameters as per Table 19.

A short description of data set [3]: in vivo. Also on record: species or system Swiss Albino mice. The conditions noted are these: Swiss Albino, mouse, po, 2.5 mg/kg. As to the method:
5(S)-CPT (2.5 mg/kg) and 5(RS)-CPT (5 mg/kg, including 2.5 mg/kg of 5(S)-CPT in the mixture) were been administered to Swiss Albino mice to evaluate oral pharmacokinetics.
Swiss Albino mice, 3-6 weeks of age and weighing between 28-34 g were used in the study. Twelve mice were used per study. The oral pharmacokinetics test was carried out in overnight fasted condition and intravenous pharmacokinetics was carried out in fed condition. The test drugs were administered as a solution by oral gavage or lateral tail vein injection. Sparse blood samples of about 250 microliters were collected from retro-orbital plexus at designated time points into microcentrifuge tubes containing 25 microliters of EDTA. Plasma was separated by centrifuging blood at 12,800 rpm for 2 min and refrigerated until analysis.
Samples were tested for the presence of the test drug as follows. An aliquot of 100µl plasma (stored at 8° C.) was precipitated with 400µl of cold methanol for the estimation of total (lactone+carboxylate). […] Concentrations of the test drug were calculated from the linearity plotted by spiking known concentrations of the test drug in blank rat plasma. The pharmacokinetics of the test drug was calculated using non-compartmental analysis.

Data set [4] can be described thus: physchem. Format: physicochemical. The conditions noted are these: thermodynamic from solid. As to the method: Excess amounts of DRF-(5S,20S)-1042 were added to different media including water, fasting state simulated intestinal fluid (FaSIF), fed state simulated intestinal fluid (FeSIF), aqueous sodium carbonate solution (0.1M, pH12.6), aqueous sodium hydroxide solution (0.1M, pH 12.73) and the suspensions were shaken at room temperature for 24 hours at 200 rpm in a mechanical shaker water bath till no further drug went into solution when checked visually. The suspensions were filtered through a 0.22 μm membrane filter (supplied by Millipore) and the content of DRF-(5S,20S)-1042 was quantified by using the HPLC method described above.

Converted amounts (≈) assume the structure as drawn.

As to `CC[C@@]1(O)C(=O)OCc2c1cc1n(c2=O)[C@@H](OCCO)c2cc3ccccc3nc2-1` [DRF-(5S,20S)-1042, 5(S)-(2′-hydroxyethoxy)-20(S)-camptothecin], in data set [1], the “Safety Margin GI90/GI50” value was found to be 0.14. Further, in data set [2] (drug substance), the Bulk density worked out at 0.17 g/mL, the “Carr Index” value is reported as 46.5%, the Hausner ratio is 1.9 and the Moisture content turned out to be 0.2 % w/w. In data set [2] (drug substance), the Tapped density was determined as 0.31 g/mL. Also, in data set [2] (lot used for the examples), the “Particle size D10” value is “D10 = 3.6 μm”, the “Particle size D50” value is on record as “D50 = 10.9 μm” and the “Particle size D90” value is “D90 = 34.0 μm”. Besides, the AUC (in general, the area under the concentration-time curve, a measure of exposure) in data set [3] turned out to be 1.1 µM·h. For the same molecule, in data set [4] (fessif), the solubility (in general, the dissolved amount per volume that the medium holds) at 24 h was ~41 µg/mL (≈ 0.1 mM). In data set [4] (pH 12.6, aqueous buffer), this molecule returned a solubility at 24 h of 4160 µg/mL (≈ 10.2 mM). The amount in solution in data set [4] (pH 12.73, aqueous buffer) (solubility at 24 h) came to 6670 µg/mL (≈ 16.3 mM).
